Test results: US20160310571A1, “Pharmaceutical Composition Comprising Erythropoietin and Ceftriaxone and A Method for Treating Parkinson's Disease Dementia” (Chung Shan Medical University, priority 2015, published 2016)

Assays:
Format in all cases: in vivo, rat
[1] = tested on: pyramidal neuron in the hippocampal CA1 area; assay: Histopathological analysis: Nissl staining of hippocampal CA1 sections; details: 14th day, vs group A1 (saline), p<0.001
Experimental: (§1) Wistar male rats (12 week-old, weight ˜400 grams) purchased from the National Laboratory Animal Center (R.O.C.) are used. The rats are housed in an animal room with constant temperature of 24±1° C., where is kept on a 12-hours light and 12-hours dark cycle. The rats are housed and kept on free diet and water.
(§2) On the 1st day, the rats are anesthetized, followed by bilaterally MPTP (1-methyl-4-phenyl-1,2,3,6-tetrahydropyridine hydrochloride)-infusion into the substantia nigra pars compacta (SNc). The rats with cognitive impairments on working memory and object recognition are used as the PDD rats (Ho et al., Behav Brain Res 268: 177-184, 2014).
(§3) Starting on the 1st day, referring to TABLE 1, saline (group Al), erythropoietin (groups A2 & A3) and ceftriaxone (groups A4 & A5) are administrated to the PDD rats in the corresponding groups. Erythropoietin and ceftriaxone are sequentially administrated to the PDD rats of group A6 with a time interval of 30 minutes. Saline is also used to be administrated to the normal rats of group A0. Moreover, saline, erythropoietin and ceftriaxone are administrated for 14 days (from the 1st day to the 14th day).
(§4) On the 14th day, the rats of groups A0-A6 are sacrificed and the coronal sections are collected. The sections with SNc are used for tyrosine hydroxylase staining, while the sections with hippocampal CA1 area are used for Nissl staining. […]

PDD rats [2] = assay: Object recognition test in MPTP-induced PDD rats; details: 13th day
Experimental: as §1, §2
(§5) Starting on the 1st day, referring to TABLE 1, saline (group Al), erythropoietin (groups A2 & A3) and ceftriaxone (groups A4 & A5) are administrated to the PDD rats in the corresponding groups. […]
Recognition ability of the rats of groups A0-A6 is measured using the object recognition test (Ho et al., Behav Brain Res 268: 177-184, 2014). […]
On the 13th day, the rat under test “M” is first placed in the open box shown as FIG. 4a, and the time spent exploring the object O1 (TO1) and the total time spent exploring the objects O1, O2 & O3 (TO1+O2+O3) are recorded, respectively. The percentage of the exploration time spent on the object O1 is calculated as (TO1/TO1+O2+O3)*100%. […]

[3] = tested on: DAergic neuron in the SNc; assay: Histopathological analysis: tyrosine hydroxylase staining of SNc sections; details: 14th day, vs group A1 (saline)
Experimental: as §1, §2, §3, §4

PDD rats [4] = assay: T-maze test (working memory) in MPTP-induced PDD rats; details: test on 10th day, vs chance (50%)
Experimental: as §1, §2
as §5, with “groups. Erythropoietin and ceftriaxone are sequentially administrated to the PDD rats of group A6 with a time interval of 30 minutes.” for “groups.”
Working memory of the rats of groups A0-A6 is assessed using the T-maze test (Ho et al., Behav Brain Res 268: 177-184, 2014). […]
On the 10th day, a test session consisting 3 rounds, each of which is composed of a “forced run” and two “choice run”, is carried out. The number of the rewards “R” that the rat under test “M” get (% of correct response) in the 6 choice runs is recorded.

[5] = group A4, ceftriaxone 5 mg/kg/day, p<0.05

With `CO/N=C(\C(=O)N[C@@H]1C(=O)N2C(C(=O)O)=C(CSc3nc(=O)c(=O)[nH]n3C)CS[C@H]12)c1csc(N)n1` [ceftriaxone] the “percentage of the CA1 area occupied by the pyramidal neuron” value ([1]; group A4, ceftriaxone 5 mg/kg/day) was “recovery of pyramidal neuron density in the CA1 area”, the “percentage of the CA1 area occupied by the pyramidal neuron” value ([1]; group A5, ceftriaxone 10 mg/kg/day) was “recovery of pyramidal neuron density in the CA1 area” and the “percentage of time exploring novel object O4 vs object O1 (recognition ability)” value (PDD rats [2]; group A4, ceftriaxone 5 mg/kg/day, p<0.001) was “can recognize the novel object O4 in the environment”. For the same molecule, the “percentage of time exploring novel object O4 vs object O1 (recognition ability)” value (PDD rats [2]; group A5, ceftriaxone 10 mg/kg/day, p<0.05) was “can recognize the novel object O4 in the environment”, the “density of DAergic neuron in the SNc” value [3, 5] was “recovery of DAergic neuron density in the SNc” and the “density of DAergic neuron in the SNc” value ([3]; group A5, ceftriaxone 10 mg/kg/day, p<0.01) was “recovery of DAergic neuron density in the SNc”. The “percentage of correct response in T-maze test (working memory)” value (PDD rats [4]; [5]) was “slightly treatment on the cognitive impairment on working memory” and the “percentage of correct response in T-maze test (working memory)” value (PDD rats [4]; group A5, ceftriaxone 10 mg/kg/day, p<0.001) was “significant treatment on the cognitive impairment on working memory”.
